According to patent publication US20110045083A1, “USE LARCH WOOD FOR TREATING INFLAMMATION” (priority 2007, published 2011):
Where “and” joins values, the source holds several entries; their conditions need not be identical. Identical values can stand only once. Entries after “also recorded” stand apart in the source; their conditions may differ. Like-named read-outs stand apart in the source and are kept apart here.

Columns and labels:
COX-1 (purified PGHS-1) = target: T1, COX-1 (purified PGHS-1) (Ovis aries, UniProt P05979); assay: COX-1 assay, purified enzyme, PGE2 EIA; format: biochemical, ram; conditions: for inhibition at 50 µM: screening concentration 50 μM
T1 construct: purified PGHS-1 (COX-1) from ram seminal vesicles; purchased Cayman Chemical Company, Ann Arbor, Mich., USA; host or cells: ram seminal vesicles (tissue-purified)
T1 sequence (P05979 25-600): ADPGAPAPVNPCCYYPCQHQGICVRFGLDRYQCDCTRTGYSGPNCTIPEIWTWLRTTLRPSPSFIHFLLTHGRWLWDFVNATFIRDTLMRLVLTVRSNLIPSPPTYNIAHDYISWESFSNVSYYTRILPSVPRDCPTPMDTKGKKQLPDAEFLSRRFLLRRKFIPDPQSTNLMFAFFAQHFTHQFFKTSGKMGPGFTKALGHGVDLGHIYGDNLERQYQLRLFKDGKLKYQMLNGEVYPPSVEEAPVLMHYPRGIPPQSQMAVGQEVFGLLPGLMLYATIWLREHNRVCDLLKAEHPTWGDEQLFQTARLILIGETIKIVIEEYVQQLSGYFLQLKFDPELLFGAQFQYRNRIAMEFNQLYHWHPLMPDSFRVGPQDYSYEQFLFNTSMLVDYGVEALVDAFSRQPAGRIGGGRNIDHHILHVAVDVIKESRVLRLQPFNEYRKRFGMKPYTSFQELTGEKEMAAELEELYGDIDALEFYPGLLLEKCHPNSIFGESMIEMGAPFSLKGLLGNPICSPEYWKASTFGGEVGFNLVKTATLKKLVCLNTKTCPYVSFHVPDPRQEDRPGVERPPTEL
Protocol: (§1) Principle: The purified enzymes COX-1 and COX-2 are incubated with a defined concentration of test sample and arachidonic acid. After stopping the enzymatic reaction by addition of formic acid and dilution, the produced PGE2 is quantified by means of a PGE2 EIA kit.
(§2) Sample preparation: The test samples (extracts and pure compounds) are dissolved in ethanol. Extracts are tested in concentrations of 20 μg/ml for screening. Pure compounds are tested in concentrations of 50 μM for screening.
(§3) Incubation procedure: The assays are performed in a microtiter scale with purified PGHS-1 (COX-1) from ram seminal vesicles and purified PGHS-2 (COX-2) from sheep placental cotyledones (both: Cayman Chemical Company, Ann Arbor, Mich., USA). The incubation mixture consists of 180 μl 0.1 M TRIS/HCl-buffer (pH 8.0) (Roth, Karlsruhe, Germany), 5 μM hematin, (porcine, ICN, Aurora, Ohio, USA), 18 mM epinephrine hydrogen tartrate (Fluka, Buchs, Switzerland), 0.2 U of enzyme preparation and 50 μM Na2EDTA (only COX-2 assay, Titriplex III, Merck, Darmstadt, Germany). 10 μl of each test solution are added and the mixture is preincubated for 5 min at room temperature. The reaction is started by adding 10 μl of 5 μM arachidonic acid (Cayman Chemical Company) in EtOH p.a. and the reaction mixture is incubated at 37° C. The reaction is terminated after 20 min by addition of 10 μl of 10% formic acid.
(§4) PGE2 EIA: The concentration of PGE2, the main arachidonic acid metabolite in this reaction, is determined by a competitive PGE2 EIA kit (Assay Designs Inc., Ann Arbor, Mich., USA). All samples are diluted in EIA buffer. The EIA is incubated for 2 hours at room temperature on an orbital shaker. After a washing step, 200 μl of substrate solution are added to each well, and the EIA is incubated for 1 hour at room temperature. After addition of 50 μl stop solution, the EIA is evaluated photometrically by an ELISA microplate reader.
(§5) Inhibition of COX refers to reduction of PGE2 formation in comparison to a blank run without inhibitor. Inhibition values are means of at least 2 experiments and each sample is tested in duplicate. […] IC50 values of active samples were determined by testing at least 3 concentrations in 3 different experiments, in duplicate each. IC50 was calculated by logarithmic regression after graphical representation.

COX-2 (purified PGHS-2) = target: T2, COX-2 (purified PGHS-2) (Ovis aries, UniProt P79208); assay: COX-2 assay, purified enzyme, PGE2 EIA; format: biochemical, sheep; conditions: for inhibition at 50 µM: screening concentration 50 μM
T2 construct: purified PGHS-2 (COX-2) from sheep placental cotyledones; purchased Cayman Chemical Company, Ann Arbor, Mich., USA; host or cells: sheep placental cotyledons (tissue-purified)
T2 sequence (P79208 17-603): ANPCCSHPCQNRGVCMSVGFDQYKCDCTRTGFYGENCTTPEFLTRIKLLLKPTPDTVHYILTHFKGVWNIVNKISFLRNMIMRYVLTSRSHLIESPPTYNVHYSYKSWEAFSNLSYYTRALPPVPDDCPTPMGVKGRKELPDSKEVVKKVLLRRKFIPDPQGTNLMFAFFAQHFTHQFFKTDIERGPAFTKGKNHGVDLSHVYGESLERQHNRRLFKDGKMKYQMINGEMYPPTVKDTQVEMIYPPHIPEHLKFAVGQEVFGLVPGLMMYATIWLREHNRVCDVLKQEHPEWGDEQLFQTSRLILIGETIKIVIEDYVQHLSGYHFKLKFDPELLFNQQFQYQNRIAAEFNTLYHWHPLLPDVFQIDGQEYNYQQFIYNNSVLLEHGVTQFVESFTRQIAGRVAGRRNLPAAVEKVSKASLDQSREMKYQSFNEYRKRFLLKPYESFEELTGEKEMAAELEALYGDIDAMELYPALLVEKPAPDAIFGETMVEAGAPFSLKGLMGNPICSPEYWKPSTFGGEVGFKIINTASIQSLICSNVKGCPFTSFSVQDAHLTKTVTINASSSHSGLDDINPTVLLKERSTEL
Protocol: as §1, §2, §3, §4, §5

Row | Structure (SMILES) | IC50 COX-1 (COX-1 (purified PGHS-1)) | inhibition at 50 µM (COX-1 (purified PGHS-1)) | IC50 COX-2 (COX-2 (purified PGHS-2)) | inhibition at 50 µM (COX-2 (purified PGHS-2)) | IC50 COX-1 (COX-1 (purified PGHS-1); listed as dehydroabietinol) | IC50 COX-2 (COX-2 (purified PGHS-2); listed as dehydroabietinol) | IC50 COX-1 (COX-1 (purified PGHS-1); listed as larixol) | IC50 COX-2 (COX-2 (purified PGHS-2); listed as larixol) | IC50 (COX-2 (purified PGHS-2); read-out: IC50 COX-2) | IC50 COX-1 (COX-1 (purified PGHS-1); listed as palustric acid) | IC50 (COX-2 (purified PGHS-2); IC50 COX-2)
1 | CC(C)c1ccc2c(c1)CCC1C(C)(C(=O)O)CCCC21C (stereo not drawn) [Dehydroabietic acid] | Inactive | 2.9 ± 7.8% | Inactive | -6 ± 9% | – | – | – | – | – | – | –
2 | CC(C)c1ccc2c(c1)CCC1C(C)(CO)CCCC21C (stereo not drawn) [Dehydroabietinol] | Inactive | -1.6 ± 4.6% | Inactive | 7.7 ± 8% | inactive | inactive | – | – | – | – | –
3 | C=C[C@@]1(C)CC[C@H]2C(=CC[C@@H]3[C@]2(C)CCC[C@@]3(C)C(=O)O)C1 [Isopimaric acid] | without inhibiting; also recorded: Inactive | 15.7 ± 7.1% | without inhibiting; also recorded: Inactive | 3.5 ± 6.2% | – | – | – | – | – | – | –
4 | CC(C)C1=CC2=C(CC1)C1(C)CCCC(C)(C(=O)O)C1CC2 (stereo not drawn) [Palustric acid] | Inactive | 13.5 ± 4.7% | – | 49.5 ± 3.5% | – | – | – | – | – | without inhibiting | 57.9 µM

More lines, main results first:

Row | IC50 COX-1 (COX-1 (purified PGHS-1)) | inhibition at 50 µM (COX-1 (purified PGHS-1)) | IC50 COX-2 (COX-2 (purified PGHS-2)) | inhibition at 50 µM (COX-2 (purified PGHS-2)) | IC50 COX-1 (COX-1 (purified PGHS-1); listed as dehydroabietinol) | IC50 COX-2 (COX-2 (purified PGHS-2); listed as dehydroabietinol) | IC50 COX-1 (COX-1 (purified PGHS-1); listed as larixol) | IC50 COX-2 (COX-2 (purified PGHS-2); listed as larixol) | IC50 (COX-2 (purified PGHS-2); read-out: IC50 COX-2) | Structure (SMILES) | IC50 COX-1 (COX-1 (purified PGHS-1); listed as palustric acid) | IC50 (COX-2 (purified PGHS-2); IC50 COX-2)
5 | Inactive | 2.1 ± 4.7% | Inactive | 8.7 ± 3.8% | – | – | inactive | inactive | – | C=CC(C)(O)CCC1C(=C)CC(O)C2C(C)(C)CCCC12C (stereo not drawn) [Larixol] | – | –
6 | Inactive | 0.2 ± 5.9% | devoid of COX-2inhibitory activity | 38.5 ± 5.9% | – | – | – | – | 95 µM and 95.1 µM | C=CC(C)(O)CCC1C(=C)CC(OC(C)=O)C2C(C)(C)CCCC12C (stereo not drawn) [Larixyl acetate] | – | –
